Like-named read-outs stand apart in the source and are kept apart here.
Target: T1, Human FXR full length (Homo sapiens, UniProt Q96RI1)
T1 construct: Human FXR full length and RXR full length was obtained from Ronald Evans' laboratory; expressed in transfected cells; host or cells: CV-1 cells
T1 sequence (Q96RI1 1-476 isoform Q96RI1-1): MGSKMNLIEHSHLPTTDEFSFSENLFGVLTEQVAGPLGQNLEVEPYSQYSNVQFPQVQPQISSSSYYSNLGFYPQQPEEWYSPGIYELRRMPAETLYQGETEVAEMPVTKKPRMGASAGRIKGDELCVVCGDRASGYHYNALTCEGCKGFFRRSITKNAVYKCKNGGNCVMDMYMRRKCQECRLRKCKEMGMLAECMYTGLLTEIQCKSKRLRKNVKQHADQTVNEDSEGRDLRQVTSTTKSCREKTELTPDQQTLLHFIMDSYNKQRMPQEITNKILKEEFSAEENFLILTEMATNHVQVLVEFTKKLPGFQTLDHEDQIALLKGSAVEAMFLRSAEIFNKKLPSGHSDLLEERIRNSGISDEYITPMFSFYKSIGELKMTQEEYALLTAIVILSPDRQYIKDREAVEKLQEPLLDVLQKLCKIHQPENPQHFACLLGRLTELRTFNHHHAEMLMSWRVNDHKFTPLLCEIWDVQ
T1 sequence (P19793 1-462 partner): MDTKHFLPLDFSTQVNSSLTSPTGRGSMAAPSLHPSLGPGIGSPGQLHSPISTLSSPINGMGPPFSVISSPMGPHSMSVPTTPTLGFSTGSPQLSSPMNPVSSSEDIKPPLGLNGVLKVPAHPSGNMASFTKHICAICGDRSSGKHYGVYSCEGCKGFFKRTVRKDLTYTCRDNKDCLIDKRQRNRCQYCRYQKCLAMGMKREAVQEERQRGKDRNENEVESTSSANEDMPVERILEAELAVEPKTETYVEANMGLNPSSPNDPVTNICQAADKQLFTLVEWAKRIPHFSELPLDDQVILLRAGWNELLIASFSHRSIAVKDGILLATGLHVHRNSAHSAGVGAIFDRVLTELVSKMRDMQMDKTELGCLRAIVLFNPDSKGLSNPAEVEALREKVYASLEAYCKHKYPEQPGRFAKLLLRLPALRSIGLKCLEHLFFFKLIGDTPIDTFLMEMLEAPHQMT
Experiment: FXR activity screen, luciferase reporter in transfected CV-1 cells
Assay type: cell-based
Method: CV-1 cells were grown in DMEM+10% charcoal stripped FCS. Cells were seeded into 384-well plates the day before transfection to give a confluency of 50-80% at transfection. A total of […] DNA containing 0.32 micrograms pCMX-hFXRfl, 0.32 micrograms pCMX-hRXRfl, 0.1 micrograms pCMXβGal, 0.08 micrograms pGLFXRE reporter and 0.02 micrograms pCMX empty vector was transfected per well using FuGene transfection reagent according to the manufacturer's instructions (Roche). Cells were allowed to express protein for 48 hours followed by addition of compound.
Human FXR full length and RXR full length was obtained from Ronald Evans' laboratory and PCR amplification of the hFXR cDNA and the hRXR cDNA was performed. The amplified cDNAs was cloned into the vector pCMX generating the plasmids pCMX-hFXRfl and pCMX-hRXRfl. Ensuing fusions were verified by sequencing. The pCMXMH2004 luciferase reporter contains multiple copies of the GAL4 DNA response element under a minimal eukaryotic promoter (Hollenberg and Evans, 1988). pCMXβGal was generated in the Evans laboratory, Salk Institute.
All compounds were dissolved in DMSO and diluted 1:1000 upon addition to the cells. Compounds were tested in quadruple in concentrations ranging from 0.001 to 100 μM. Cells were treated with compound for 24 hours followed by luciferase assay. Each compound was tested in at least two separate experiments.
Medium including test compound was aspirated and washed with PBS. 50 μL PBS including 1 mM Mg^2+ and Ca^2+ were then added to each well. The luciferase assay was performed using the LucLite kit according to the manufacturer's instructions (Packard Instruments). Light emission was quantified by counting on a Perkin Elmer Envision reader. To measure […] activity 25 μL supernatant from each transfection lysate was transferred to a new 384 microplate. Beta-galactosidase assays were performed in the microwell plates using a kit from Promega and read in a Perkin Elmer Envision reader. The beta-galactosidase data were used to normalize (transfection efficiency, cell growth etc.) the luciferase data.
The activity of a compound is calculated as fold induction compared to an untreated sample. For each compound the efficacy (maximal activity) is given as a relative activity compared to Fexaramine, a FXR agonist. The EC50 is the concentration giving 50% of maximal observed activity. EC50 values were calculated via non-linear regression using GraphPad PRISM (GraphPad Software, San Diego, Calif.).

[1] = first round, CV-1 cells, 24 hours, read-out: 1st RND EC50
[2] = second round, CV-1 cells, 24 hours, read-out: 2nd RND EC50

Row | Compound | EC50 [1] | EC50 [2] | EC50 (retest, read-out: EC50 (retested))
1 | COC(=O)/C=C/c1cccc(N(Cc2cccc3ccc(N(C)C)cc23)C(=O)C2CCCCC2)c1 [NSSK00001] | 68.6 nM | 55.8 nM | 
2 | COC(=O)/C=C/c1cccc(N(Cc2cccc3ccc(N(C)C)c(F)c23)C(=O)C2CCCCC2)c1 [NSSK00002] | 96.8 nM | 65.9 nM | 
3 | COC(=O)/C=C/c1cccc(N(Cc2ccc(-c3ccc4c(cnn4C)c3)cc2)C(=O)C2CCCCC2)c1 [NSSK00004] | 237 nM | 266 nM | 
4 | COC(=O)/C=C/c1cncc(N(Cc2cccc3cc4cnn(C)c4cc23)C(=O)C2CCCCC2)c1 [NSSK00005] | 1820 nM | 2100 nM | 
5 | COC(=O)/C=C/c1cccc(N(Cc2cccc3cc4cnn(C)c4c(F)c23)C(=O)C2CCCCC2)c1 [NSSK00006] | 273 nM | 243 nM | 
6 | COC(=O)/C=C/c1cc(F)cc(N(Cc2cccc3cc4cnn(C)c4c(F)c23)C(=O)C2CCCCC2)c1 [NSSK00007] | 473 nM | 169 nM | 
7 | COC(=O)/C=C/c1cncc(N(Cc2cccc3cc4cnn(C)c4c(F)c23)C(=O)C2CCCCC2)c1 [NSSK00008] | 2000 nM | 1400 nM | 
8 | COC(=O)/C=C/c1cncc(N(Cc2cccc3cc4cnn(C)c4c(Cl)c23)C(=O)C2CCCCC2)c1 [NSSK00009] | 3300 nM | 4900 nM | 
9 | [2H]C(c1ccc(-c2ccc3c(cnn3C)c2)cc1F)N(C(=O)C1CCCCC1)c1cc(F)cc(/C=C/C(=O)OC)c1 (centres unmarked) [NSSK00011] | 289 nM | 379 nM | 
10 | [2H]C(c1ccc(-c2ccc3c(cnn3C)c2)cc1F)N(C(=O)C1CCCCC1)c1cncc(/C=C/C(=O)OC)c1 (centres unmarked) [NSSK00012] | 1200 nM | 1200 nM | 
11 | [2H]C(c1ccc(-c2ccc3c(cnn3C)c2)cc1Cl)N(C(=O)[C@@H]1C[C@@H]2CC[C@H]1C2)c1cccc(/C=C/C(=O)OC)c1 (some centres unmarked) [NSSK00013] | 390 nM | 430 nM | 
12 | [2H]C(c1ccc(-c2ccc3c(cnn3C)c2)cc1Cl)N(C(=O)C1CCCCC1)c1cccc(/C=C/C(=O)OC)c1 (centres unmarked) [NSSK00014] | 346 nM | 475 nM | 
13 | [2H]C(c1ccc(-c2ccc3c(cnn3C)c2)cc1Cl)N(C(=O)C1CCCCC1)c1cc(F)cc(/C=C/C(=O)OC)c1 (centres unmarked) [NSSK00016] | 285 nM | 377 nM | 
14 | COC(=O)/C=C/c1cccc(N(Cc2ccc(-c3ccc4c(cnn4C)c3)cc2)C(=O)[C@H]2C[C@H]3CC[C@@H]2C3)c1 [NSSK00017] | 756 nM | 500 nM | 
15 | COC(=O)/C=C/c1cncc(N(Cc2cccc3cc4cnn(C)c4cc23)C(=O)[C@@H]2C[C@@H]3CC[C@H]2C3)c1 [NSSK00018] | 380 nM | 415 nM | 
16 | COC(=O)/C=C/c1cccc(N(Cc2cccc3cc4cnn(C)c4c(F)c23)C(=O)C2C[C@H]3CC[C@@H]2C3)c1 (some centres unmarked) [NSSK00019] | 923 nM | 554 nM | 
17 | COC(=O)/C=C/c1cc(F)cc(N(Cc2cccc3cc4cnn(C)c4c(F)c23)C(=O)C2C[C@H]3CC[C@@H]2C3)c1 (some centres unmarked) [NSSK00020] | 743 nM | 464 nM | 
18 | COC(=O)/C=C/c1cncc(N(Cc2cccc3cc4cnn(C)c4c(Cl)c23)C(=O)C2C[C@H]3CC[C@@H]2C3)c1 (some centres unmarked) [NSSK00022] | 3200 nM | 2700 nM | 
19 | [2H]C(c1ccc(-c2ccc(N(C)C)cc2)cc1)N(C(=O)C1CCCCC1)c1cc(F)cc(/C=C/C(=O)OC)c1 (centres unmarked) [NSSK00025] | 150 nM | 168 nM | 

Row | Compound | EC50 [1] | EC50 [2] | EC50 (retest, read-out: EC50 (retested))
20 | [2H]C(c1ccc(-c2ccc(N(C)C)cc2)cc1)N(C(=O)[C@@H]1C[C@@H]2CC[C@H]1C2)c1cncc(/C=C/C(=O)OC)c1 (some centres unmarked) [NSSK00026] | 587 nM | 910 nM | 
21 | [2H]C(c1ccc(-c2ccc(N(C)C)cc2)cc1F)N(C(=O)C1CCCCC1)c1cccc(/C=C/C(=O)OC)c1 (centres unmarked) [NSSK00027, methyl (E)-3-(3-(N-((4′-(dimethylamino)-3-fluoro-[1,1′-biphenyl]-4-yl)methyl-d)cyclohexanecarboxamido)phenyl)acrylate] | 48.9 nM | 46.6 nM | 118 nM
22 | [2H]C(c1ccc(-c2ccc(N(C)C)cc2)cc1F)N(C(=O)[C@@H]1C[C@@H]2CC[C@H]1C2)c1cncc(/C=C/C(=O)OC)c1 (some centres unmarked) [NSSK00029] | 605 nM | 510 nM | 
23 | [2H]C(c1ccc(-c2ccc(N(C)C)cc2)cc1F)N(C(=O)C1CCCCC1)c1cncc(/C=C/C(=O)OC)c1 (centres unmarked) [NSSK00030] | 656 nM | 375 nM | 
24 | [2H]C(c1ccc(-c2ccc(N(C)C)cc2)cc1Cl)N(C(=O)C1CCCCC1)c1cccc(/C=C/C(=O)OC)c1 (centres unmarked) [NSSK00031] | 366 nM | 249 nM | 
25 | [2H]C(c1ccc(-c2ccc(N(C)C)cc2)cc1Cl)N(C(=O)C1CCCCC1)c1cncc(/C=C/C(=O)OC)c1 (centres unmarked) [NSSK00032] | 2600 nM | 2900 nM | 
26 | [2H]C(c1ccc(-c2ccc3c(cnn3C)c2)cc1)N(C(=O)C1CCCCC1)c1cccc(/C=C/C(=O)OC)c1 (centres unmarked) [NSSK00033] | 169 nM | 254 nM | 
27 | [2H]C(c1ccc(-c2ccc3c(cnn3C)c2)cc1)N(C(=O)C1CCCCC1)c1cncc(/C=C/C(=O)OC)c1 (centres unmarked) [NSSK00034] | 2200 nM | 2680 nM | 
28 | COC(=O)/C=C/c1cccc(N(Cc2ccc(-c3ccc4c(cnn4C)c3)cc2)C(=O)C2CCN(C)CC2)c1 [NSSK00035] | 3300 nM | 4490 nM | 
29 | COC(=O)/C=C/c1cccc(N(Cc2cccc3cc4cnn(C)c4c(F)c23)C(=O)C2CCN(C)CC2)c1 [NSSK00036] | 18600 nM | 4900 nM | 
30 | [2H]C(c1ccc(-c2ccc3c(cnn3C)c2)cc1F)N(C(=O)c1ccccc1)c1cccc(/C=C/C(=O)OC)c1 (centres unmarked) [NSSK00038] | 1370 nM | 1900 nM | 
31 | [2H]C(c1ccc(-c2ccc3c(cnn3C)c2)cc1F)N(C(=O)c1ccccc1)c1cc(F)cc(/C=C/C(=O)OC)c1 (centres unmarked) [NSSK00039] | 1550 nM | 870 nM | 
32 | [2H]C(c1ccc(-c2ccc3c(cnn3C)c2)cc1Cl)N(C(=O)c1ccccc1)c1cc(F)cc(/C=C/C(=O)OC)c1 (centres unmarked) [NSSK00041] | 1100 nM | 1200 nM | 
33 | COC(=O)/C=C/c1cccc(N(Cc2ccc(-c3ccc(N(C)C)cc3)cc2)C(=O)[C@@H]2C[C@@H]3CC[C@H]2C3)c1 [NSSK00042] | 135 nM | 620 nM | 
34 | COC(=O)/C=C/c1cccc(N(Cc2ccc(-c3ccc(N(C)C)cc3)cc2F)C(=O)[C@@H]2C[C@@H]3CC[C@H]2C3)c1 [NSSK00043] | 80.9 nM | 80.7 nM | 
35 | COC(=O)/C=C/c1cc(F)cc(N(Cc2ccc(-c3ccc(N(C)C)cc3)cc2F)C(=O)[C@@H]2C[C@@H]3CC[C@H]2C3)c1 [NSSK00044] | 149 nM | 144 nM | 
36 | [2H]C(c1ccc(-c2ccc(N(C)C)cc2)cc1Cl)N(C(=O)[C@@H]1C[C@@H]2CC[C@H]1C2)c1cccc(/C=C/C(=O)OC)c1 (some centres unmarked) [NSSK00045] | 334 nM | 334 nM | 
37 | COC(=O)/C=C/c1cccc(N(Cc2ccc(-c3ccc4c(cnn4C)c3)cc2Cl)C(=O)[C@@H]2C[C@@H]3CC[C@H]2C3)c1 [NSSK00046] | 639 nM | 519 nM | 
38 | COC(=O)/C=C/c1cc(F)cc(N(Cc2ccc(-c3ccc4c(cnn4C)c3)cc2Cl)C(=O)[C@@H]2C[C@@H]3CC[C@H]2C3)c1 [NSSK00047] | 355 nM | 403 nM | 
